Source: US12002595B2, “Separation of metal ions by liquid-liquid extraction” (priority 2016, dated 2024)

Experiments:
[1] = Extraction by TODGA from HNO3 in the absence or presence of 1 mM 343HOPO
Procedure: Organic phase: 0.1 M TODGA in kerosene. Aqueous solvent: HNO3. T=25° C. O/A=1, one contact. Points with arrows are lower limits.
(§1) For Example 20—Example 24, pH measurements were performed with a glass electrode (Metrohm-Micro Combi-response to [H+]) calibrated at 25.0° C. using three NIST standards. Extraction samples were analyzed by liquid scintillation counting (LSC). The distribution coefficient, D(M), of a given metal, M, is defined in Eq. 1, where [M]organic and [M]aqueous are the respective total concentrations of M in the organic and aqueous layers, after extraction. Both concentrations are proportional to the volumetric activity (in Bq/L) determined by LSC. The separation factor, SFM1/M2, between two metals, M1 and M2, and extraction yield were calculated according to Eq. 2 and Eq. 3, respectively.
(§2) In a typical experiment, the solvent (extractant diluted in kerosene) was pre-conditioned by shaking one volume of solvent with three volumes of aqueous phase (typically HNO3) at room temperature for 1 h, thrice. For radioisotope extractions, at least 400 μL aqueous phase (typically containing HNO3, a chelator and a radioisotope) and solvent were placed in air-tight screw-capped plastic tubes, triply-contained, and shaken in a thermoshaker at 300 rpm, 25° C., for at least 30 min. Samples were then centrifuged for 5 min at 3000 rpm and phases separated before analysis. LSC analyses were performed on a Packard Tri-Carb B4430 instrument (Perkin Elmer) after mixing sample aliquots or sample dilution aliquots (10 to 200 μL) with 10 mL of scintillation cocktail (UltimaGold LLT). Samples were counted for at least 6 min and results were background subtracted. The analytical samples contained between 0 and 800,000 CPM. Mixtures of ^249Bk and ^249Cf were analyzed using α/β discrimination and energy windows were set to 0-50 keV for low-energy β particles of ^249Bk and 50-1000 keV for α particles of ^249Cf. ^243Am and ^225Ac samples were counted at secular equilibrium.

[2] = Eu(III), I=2.0 M at 25° C.; cited from earlier work
[3] = Stability constant (log β) of ligand-metal complexes; assay type: binding; conditions: 25.0° C., 0.1 M KCl
Procedure: Solution Thermodynamics. All titrant solutions were degassed by boiling for 1 h while being purged under Ar. Carbonate-free 0.1 M KOH was prepared from concentrate (J. T Baker Dilut-It) and was standardized by titrating against 0.1 M potassium hydrogen phthalate (99.95%, Sigma Aldrich). Solutions of 0.1 M HCl were similarly prepared and were standardized by titrating against TRIS (99.9%, J. T. Baker). The glass electrode (Metrohm—Micro Combi—response to [H+]) used for the pH measurements was calibrated at 25.0° C. and at an ionic strength of 0.1 M (KCl) before each potentiometric or spectrophotometric titration. The calibration data were analyzed using the program GLEE (Gans & O'Sullivan, Talanta, 2000, 51 (1): 33-37) to refine for the E° and slope. All thermodynamic measurements were conducted at 25.0° C., in 0.1 M KCl supporting electrolyte under positive Ar gas pressure. The automated titration system was controlled by an 867 pH Module (Metrohm). Two-milliliter Dosino 800 burets (Metrohm) dosed the titrant (0.1 M KOH or 0.1 M HCl) into the thermostated titration vessel (5-90 mL). UV-visible spectra were acquired with an Ocean Optics USB4000-UV-vis spectrometer equipped with a TP-300 dip probe (Ocean Optics; path length of 10 mm), fiber optics and a DH-2000 light source (deuterium and halogen lamps). The fully automated titration system and the UV-vis spectrophotometer were coordinated by LBNL titration system, a computer program developed in house.
Incremental Spectrophotometric Titrations. This method was used to determine the protonation constants of 3,4,3-LI(CAM) as well as the stability constants of its complexes formed with Eu(III), Zr(IV) and ^232Th(IV). The experimental titration setup is similar to previously described systems (Sturzbecher-Hoehne, et al., Radiochimica Acta., 2013, 101 (6): 359-366). For the 3,4,3-LI(CAM) protonation (and Eu(III)-3,4,3-LI(CAM) complexes), titrations were performed with an initial concentration of 50 μM of 3,4,3-LI(CAM) (and 50 μM of Eu(III)) resulting in absorbance values included between 0 and 1.0 throughout the titration. Typically, 9 mL of a sample containing 3,4,3-LI(CAM) (and Eu(III)) and the supporting electrolyte (KCl/HCl) were incrementally perturbed by addition of 0.025 mL of carbonate-free 0.1 M KOH followed by a time delay of 80 s. Buffering of the solution was ensured by the addition of 10 mM of HEPES, 10 mM of CHES and 10 mM of MES. Between 130 and 250 data points were collected per titration, each data point including a pH measurement and a UV-Vis spectrum (250-450 nm) over the pH range 1.5 to 12.0. All spectra were corrected for dilution before data fitting. The entire procedure (electrode calibrate, titration and data treatment) was performed independently five times for the protonation constants and four times for the Eu(III)-3,4,3-LI(CAM) complexes. For the Zr(IV) and Th(IV) complexes, titrations were performed similarly but in the presence of DTPA to avoid the formation of metal hydroxides at low pH, before the uptake by 3,4,3-LI(CAM). For each metal, three titrations were performed independently in the presence of 1.1 to 40 equivalents of DTPA.
Data Treatment. […] All metal and chelator concentrations were held at estimated values determined from the volume of standardized stock solutions. All species formed with 3,4,3-LI(CAM) were considered to have significant absorbance to be observed in the UV-vis spectra and were therefore included in the refinement process. […]

[4] = Extraction by HDEHP with 1 mM 343HOPO in 0.1 M HNO3 and 1.9 M NaNO3; conditions: chelator in place of 343HOPO; acidic conditions
Procedure: Aqueous phase: 1 mM 343HOPO in 0.1 M HNO3 and 1.9 M NaNO3. Organic phase: HDEHP in kerosene.
A log scale is used for clarity. See FIGS. 58A and 58B for results as a function of the phase ratio.
as §1, §2

## CCCCCCCCN(CCCCCCCC)C(=O)COCC(=O)N(CCCCCCCC)CCCCCCCC [TODGA, N,N,N′,N′-tetraoctyl diglycolamide, reference compound]
[1]; TODGA as extractant
  distribution factor of uranyl (Du): < 30
[1]; if HNO3>1 M, no chelator, 0.1 M TODGA in kerosene
  extraction yields of Gd^3+, Lu^3+, UO2^2+, Pu^4+, and Cf^3+ from HNO3: > 99.5%

## CC(O)C(=O)O (stereo not drawn) [lactate]
[2]
  log β130: 5.88

## O=C(NCCCN(CCCCN(CCCNC(=O)c1cccc(O)c1O)C(=O)c1cccc(O)c1O)C(=O)c1cccc(O)c1O)c1cccc(O)c1O [3,4,3-LI(CAM)]
[3]; [Eu-3,4,3-LI(CAM)]^5−
  log β110: 29.7
[3]; [Th-3,4,3-LI(CAM)]^4−
  log β110: 47.7
[3]; [Zr-3,4,3-LI(CAM)]^4−
  log β110: 57.3

## O=C(O)CN(CCN(CC(=O)O)CC(=O)O)CC(=O)O [EDTA, Ethylenediaminetetraacetic acid]
[4]
  separation between Bk and Cf: no separation at all

## O=C(O)CN(CC(=O)O)[C@H]1CCCC[C@@H]1N(CC(=O)O)CC(=O)O [CDTA, Trans-1,2-cyclohexanediamine-N,N,N′,N′-tetraacetic acid]
[4]
  separation between Bk and Cf: no separation at all

## O=C(O)CN(CC(=O)O)CC(=O)O [NTA, Nitrilotriacetic acid]
[4]
  separation between Bk and Cf: no separation at all
